Source: patent US8853207B2 (Development Center for Biotechnology, priority 2012, dated 2014)
Counter-ions that a name gives are not always drawn.

Legend:
Type in all cases: biochemical
[1] = molecular target: FLT3 kinase (FLT3 kinase domain alone, Upstate) (Homo sapiens (Human), UniProt P36888); test: FLT3 kinase assay ([33P] incorporation into substrate); conditions: 100 μM ATP, 30° C., 30 minutes; read-out: IC50 against FLT3
Description: (§1) Inhibition of FLT3 kinase activity by compounds disclosed herein was quantified by measuring the amount of [^33P] incorporated into the substrate in the presence of a test compound. Briefly, a reaction mixture of 25 μL final volume containing 5 ng of FLT3 kinase (FLT3 kinase domain alone, Upstate), 5 μg of the substrate [(Poly (Glu-Tyr, 4:1), Sigma], kinase reaction buffer (20 mM MOPS pH 7.0, 1 mM EDTA, 5% glycerol, 0.01% Brij-35, 0.1% β-mercaptoethanol, 1 mg/mL BSA, 100 μM ATP, 0.1 μCi per well [^33P]-γ-ATP (2,500-3,000 Ci/mmol)), and a test compound (diluted from 9 μM to the desired final concentration by 4% DMSO) or DMSO (as the control) was incubated at 30° C. for 30 minutes. The reaction was stopped by adding 5 μL of 3% phosphoric acid solution. The resultant solution (30 μL) was later harvested by a UniFilter Plate GF/B (PerkinElmer) followed by adding 30 μL of the scintillation cocktail (MicroScint 20, PerkinElmer) to the well. The radioactivity retained on the filter membrane was measured by a luminescence counter (PerkinElmer). The results were analyzed by using linear regression software (GraphPad Prism 4; GraphPad Software Inc.).

[2] = molecular target: PDGFR-β kinase (recombinant N-terminal 6×His-tagged PDGFR-β kinase domain) (Homo sapiens (Human), UniProt P09619); test: PDGFR-β kinase assay ([33P] incorporation into substrate); conditions: 30 nM ATP, 30° C., 30 minutes; read-out: IC50 (nM) PDGFRβ
Chain of PDGFR-β kinase (recombinant N-terminal 6×His-tagged PDGFR-β kinase domain) (P09619 600-962): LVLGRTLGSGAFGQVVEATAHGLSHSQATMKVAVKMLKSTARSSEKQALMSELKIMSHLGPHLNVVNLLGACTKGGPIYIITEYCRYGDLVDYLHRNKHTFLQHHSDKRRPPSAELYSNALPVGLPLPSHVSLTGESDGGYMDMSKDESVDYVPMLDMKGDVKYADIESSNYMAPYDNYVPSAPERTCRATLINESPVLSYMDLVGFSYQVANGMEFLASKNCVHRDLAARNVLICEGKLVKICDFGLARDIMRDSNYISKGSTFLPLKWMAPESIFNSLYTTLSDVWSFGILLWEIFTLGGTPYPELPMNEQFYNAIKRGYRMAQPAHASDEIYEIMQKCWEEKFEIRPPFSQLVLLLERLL
Description: as §1, with “of PDGFR-β” for “of FLT3”, “containing 55” for “containing 5”, “kinase (obtained by purifying recombinant N-terminal 6×His-tagged PDGFR-β” for “kinase (FLT3”, “domain construct expressed by baculovirus), 2.5” for “domain alone, Upstate), 5”, “substrate [Poly” for “substrate [(Poly”, “BSA, 2 mM MnCl2, 30 nM” for “BSA, 100 μM”

[3] = molecular target: C-kit kinase (recombinant N-terminal 6×His-tagged C-kit kinase domain) (Homo sapiens (Human), UniProt P10721); test: C-kit kinase assay ([33P] incorporation into substrate); conditions: 100 μM ATP, 30° C., 30 minutes
Chain of C-kit kinase (recombinant N-terminal 6×His-tagged C-kit kinase domain) (P10721 589-937): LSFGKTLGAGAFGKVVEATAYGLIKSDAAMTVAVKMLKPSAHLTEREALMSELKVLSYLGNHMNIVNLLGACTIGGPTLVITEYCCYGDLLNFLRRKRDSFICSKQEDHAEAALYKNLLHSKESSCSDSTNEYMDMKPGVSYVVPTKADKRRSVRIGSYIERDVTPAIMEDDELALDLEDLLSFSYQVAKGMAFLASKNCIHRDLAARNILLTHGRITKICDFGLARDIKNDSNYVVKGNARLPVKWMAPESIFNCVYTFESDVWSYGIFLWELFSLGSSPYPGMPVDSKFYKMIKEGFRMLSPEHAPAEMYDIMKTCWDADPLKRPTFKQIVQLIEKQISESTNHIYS
Description: Inhibition of C-kit kinase activity by compounds disclosed herein was quantified by measuring the amount of [^33P] incorporated into the substrate in the presence of a test compound. Briefly, a reaction mixture of 25 μL final volume containing 5 ng of C-kit kinase (obtained by purifying recombinant N-terminal 6×His-tagged C-kit kinase domain construct expressed from baculovirus), 5 μg of the substrate [Poly (Glu-Tyr, […], Sigma], kinase reaction buffer (8 mM MOPS/NaOH pH7.0, 0.2 mM EDTA, 10 mM MnCl2, 0.5% glycerol, 0.001% Brij-35, 0.01%, 2-mercaptoethanol, 0.1 mg/ml BSA, 100 μM ATP, 0.1 μCi per well [^33P]-γ-ATP (2,500-3,000 Ci/mmol)), and a test compound (diluted from 9 μM to the desired final concentration by 4% DMSO) or DMSO (as the control) was incubated at 30° C. for 30 minutes. The reaction was stopped by adding 5 μL of 3% phosphoric acid solution. The resultant solution (30 μL) was later harvested by a UniFilter Plate GF/B (PerkinElmer) followed by adding 30 μL of the scintillation cocktail (MicroScint 20, PerkinElmer) to the well. The radioactivity retained on the filter membrane was measured by a luminescence counter (PerkinElmer). The results were analyzed by using linear regression software (GraphPad Prism 4; GraphPad Software Inc.).

Chain of FLT3 kinase (FLT3 kinase domain alone, Upstate) (P36888 610-943): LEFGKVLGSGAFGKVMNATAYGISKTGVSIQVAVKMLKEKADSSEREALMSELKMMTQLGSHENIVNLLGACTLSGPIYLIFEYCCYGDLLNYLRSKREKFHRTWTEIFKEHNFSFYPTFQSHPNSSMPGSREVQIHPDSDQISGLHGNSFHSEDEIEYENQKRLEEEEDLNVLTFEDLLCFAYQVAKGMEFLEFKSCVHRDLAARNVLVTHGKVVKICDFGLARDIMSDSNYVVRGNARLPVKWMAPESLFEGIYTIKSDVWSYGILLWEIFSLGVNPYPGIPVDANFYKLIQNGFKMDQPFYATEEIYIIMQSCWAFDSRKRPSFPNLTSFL

SMILES	IC50 [1]	IC50 [2]	IC50 [3]
COc1ccc(-c2n[nH]c3c2Cc2sc(-c4ccc(NC(=O)CN5CCCC5)nc4)cc2-3)cc1 [Example-82, N-{5-[6-(4-Methoxy-phenyl)-4,7-dihydro-1-thia-4,5-diaza-cyclopenta[a]pentalen-2-yl]-pyridin-2-yl}-2-pyrrolidin-1-yl-acetamide]	< 100 nM	176 nM	12.2 nM
COc1ccc(-c2n[nH]c3c2Cc2sc(-c4ccncc4)cc2-3)cc1 [Example-69, 6-(4-Methoxy-phenyl)-2-pyridin-4-yl-4,7-dihydro-1-thia-4,5-diaza-cyclopenta[a]pentalene]	< 100 nM	316 nM	22 nM
COc1ccc(-c2n[nH]c3c2Cc2sc(-c4cccnc4)cc2-3)cc1 [Example-70, 6-(4-Methoxy-phenyl)-2-pyridin-3-yl-4,7-dihydro-1-thia-4,5-diaza-cyclopenta[a]pentalene]	< 100 nM	479 nM	24.8 nM
Nc1ccc(-c2n[nH]c3c2Cc2sccc2-3)cc1 [Example-2, 4-(4,7-Dihydro-1-thia-4,5-diaza-cyclopenta[a]pentalen-6-yl)-phenylamine hydrochloride]	< 100 nM	859 nM	201 nM
Oc1cccc(Nc2ccc(-c3n[nH]c4c3Cc3sccc3-4)cc2)c1 [Example-10, 3-[4-(4,7-Dihydro-1-thia-4,5-diaza-cyclopenta[a]pentalen-6-yl)-phenylamino]-phenol]	< 100 nM	118 nM	139 nM
COc1ccc(-c2n[nH]c3c2Cc2sc(-c4ccc(N)nc4)cc2-3)cc1 [Example-78, 5-[6-(4-Methoxy-phenyl)-4,7-dihydro-1-thia-4,5-diaza-cyclopenta[a]pentalen-2-yl]-pyridin-2-ylamine]	< 100 nM	363 nM	27.5 nM
COc1ccc(-c2n[nH]c3c2Cc2sc(-c4ccc(OC)c(F)c4)cc2-3)cc1 [Example-83, 2-(3-Fluoro-4-methoxy-phenyl)-6-(4-methoxy-phenyl)-4,7-dihydro-1-thia-4,5-diaza-cyclopenta[a]pentalene]	< 100 nM		
COc1ccc(-c2n[nH]c3c2Cc2sc(-c4ccoc4)cc2-3)cc1 [Example-77, 2-Furan-3-yl-6-(4-methoxy-phenyl)-4,7-dihydro-1-thia-4,5-diaza-cyclopenta[a]pentalene]	< 100 nM		
Brc1ccc(-c2n[nH]c3c2Cc2sccc2-3)cn1 [Example-64, 6-(6-Bromo-pyridin-3-yl)-4,7-dihydro-1-thia-4,5-diaza-cyclopenta[a]pentalene]	100 to 499 nM		
Nc1ccc(-c2cc3c(s2)Cc2c(-c4ccc(N5CCOCC5)cc4)n[nH]c2-3)cn1 [Example-88, 5-[6-(4-Morpholin-4-yl-phenyl)-4,7-dihydro-1-thia-4,5-diaza-cyclopenta[a]pentalen-2-yl]-pyridin-2-Ylamine hydrochloride]	< 100 nM		
FC(F)(F)c1cccc(Nc2n[nH]c3c2Cc2sccc2-3)c1 [Example-29, (4,7-Dihydro-1-thia-4,5-diaza-cyclopenta[a]pentalen-6-yl)-(3-trifluoromethyl-phenyl)-amine]	< 100 nM		
COc1ccc(-c2n[nH]c3c2Cc2sc(-c4ccc(N5CCN(C)CC5)nc4)cc2-3)cc1 [Example-81, 6-(4-Methoxy-phenyl)-2-[6-(4-methyl-piperazin-1-yl)-pyridin-3-yl]-4,7-dihydro-1-thia-4,5-diaza-cyclopenta[a]pentalene]	< 100 nM		
COc1ccc(-c2n[nH]c3c2Cc2sccc2-3)c(OC)c1 [Example-4, 6-(2,4-Dimethoxy-phenyl)-4,7-dihydro-1-thia-4,5-diaza-cyclopenta[a]pentalene]	< 100 nM		
Brc1ccccc1-c1n[nH]c2c1Cc1sccc1-2 [Example-44, 6-(2-Bromo-phenyl)-4,7-dihydro-1-thia-4,5-diaza-cyclopenta[a]pentalene]	> 1000 nM		
FC(F)(F)Oc1ccc(Nc2n[nH]c3c2Cc2sccc2-3)cc1 [Example-46, (4,7-Dihydro-1-thia-4,5-diaza-cyclopenta[a]pentalen-6-yl)-(4-trifluoromethoxy-phenyl)-amine]	500 to 1000 nM		
Clc1ccc(Nc2n[nH]c3c2Cc2sccc2-3)cc1Cl [Example-53, (3,4-Dichloro-phenyl)-(4,7-dihydro-1-thia-4,5-diaza-cyclopenta[a]pentalen-6-yl)-amine]	100 to 499 nM		
COc1ccccc1-c1n[nH]c2c1Cc1sccc1-2 [Example-51, 6-(2-Methoxy-phenyl)-4,7-dihydro-1-thia-4,5-diaza-cyclopenta[a]pentalene]	< 100 nM		
c1cncc(-c2n[nH]c3c2Cc2sccc2-3)c1 [Example-16, 6-Pyridin-3-yl-4,7-dihydro-1-thia-4,5-diaza-cyclopenta[a]pentalene]	100 to 499 nM		
Clc1cc(Cl)cc(-c2n[nH]c3c2Cc2sccc2-3)c1 [Example-57, 6-(3,5-Dichloro-phenyl)-4,7-dihydro-1-thia-4,5-diaza-cyclopenta[a]pentalene]	100 to 499 nM		
